Experimental data: article PMC6968685 (Journal of Enzyme Inhibition and Medicinal Chemistry, 2020)
Structures can show the parent of a compound that is named as a salt.

| Structure (SMILES) | melting point [°C] |
| --- | --- |
| COc1ccc2cc(-c3ccc(CNCCCCN4CCN(C)CC4)cc3)nc(-c3ccc(CNCCCCN4CCN(C)CC4)cc3)c2c1 (as salt: (cooh)2) [Compound 2g, 7-Methoxy-1,3-bis{4-[(4–(4-methylpiperazin-1-yl)butyl)aminomethyl]phenyl}isoquinoline] | 172 to 174 |
| COc1ccc2nc(-c3ccc(CNCCN(C)C)cc3)nc(-c3ccc(CNCCN(C)C)cc3)c2c1 (as salt: (cooh)2) [Compound 3j, 6-Methoxy-2,4-bis{4-[(2-dimethylaminoethyl)aminomethyl]phenyl}quinazoline] | 233 to 235 |
| CN(C)CCCCNCc1ccc(-c2cc(-c3ccc(CNCCCCN(C)C)cc3)c3ccccc3n2)cc1 (as salt: (cooh)2) [Compound 1a, 2,4-Bis{4-[(4-dimethylaminobutyl)aminomethyl]phenyl}quinoline] | 258 to 260 |
| c1ccc2c(-c3ccc(CNCCCN4CCOCC4)cc3)cc(-c3ccc(CNCCCN4CCOCC4)cc3)nc2c1 (as salt: (cooh)2) [Compound 1g, 2,4-Bis{4-[(3-morpholinopropyl)aminomethyl]phenyl}quinoline] | 202 to 204 |
| CN1CCN(CCCCNCc2ccc(-c3nc(-c4ccc(CNCCCCN5CCN(C)CC5)cc4)c4ccccc4n3)cc2)CC1 (as salt: (cooh)2) [Compound 3d, 2,4-Bis{4-[(4–(4-methylpiperazin-1-yl)butyl)aminomethyl]phenyl}quinazoline] | 223 to 225 |
| c1ccc2c(-c3ccc(CNCCN4CCOCC4)cc3)cc(-c3ccc(CNCCN4CCOCC4)cc3)nc2c1 (as salt: (cooh)2) [Compound 1h, 2,4-Bis{4-[(2-morpholinoethyl)aminomethyl]phenyl}quinoline] | 235 to 237 |
| COc1ccc2nc(-c3ccc(CNCCCCN(C)C)cc3)nc(-c3ccc(CNCCCCN(C)C)cc3)c2c1 (as salt: (cooh)2) [Compound 3h, 6-Methoxy-2,4-bis{4-[(4-dimethylaminobutyl)aminomethyl]phenyl}quinazoline] | 156 to 158 |
| CN1CCN(CCNCc2ccc(-c3cc(-c4ccc(CNCCN5CCN(C)CC5)cc4)c4ccccc4n3)cc2)CC1 (as salt: (cooh)2) [Compound 1f, 2,4-Bis{4-[(2–(4-methylpiperazin-1-yl)ethyl)aminomethyl]phenyl}quinoline] | 240 to 242 |
| COc1ccc2cc(-c3ccc(CNCCCCN(C)C)cc3)nc(-c3ccc(CNCCCCN(C)C)cc3)c2c1 (as salt: (cooh)2) [Compound 2e, 7-Methoxy-1,3-bis{4-[(4-dimethylaminobutyl)aminomethyl]phenyl}isoquinoline] | 157 to 159 |
| COc1ccc2c(-c3ccc(CNCCCN(C)C)cc3)cc(-c3ccc(CNCCCN(C)C)cc3)nc2c1 (as salt: (cooh)2) [Compound 1n, 7-Methoxy-2,4-bis{4-[(3-dimethylaminopropyl)aminomethyl]phenyl}quinoline] | 237 to 239 |
| COc1ccc2nc(-c3ccc(CNCCCN4CCN(C)CC4)cc3)cc(-c3ccc(CNCCCN4CCN(C)CC4)cc3)c2c1 (as salt: (cooh)2) [Compound 1l, 6-Methoxy-2,4-bis{4-[(3–(4-methylpiperazin-1-yl)propyl)aminomethyl]phenyl}quinoline] | 223 to 225 |
| CN1CCN(CCCNCc2ccc(-c3cc4ccccc4c(-c4ccc(CNCCCN5CCN(C)CC5)cc4)n3)cc2)CC1 (as salt: (cooh)2) [Compound 2d, 1,3-Bis{4-[(3–(4-methylpiperazin-1-yl)propyl)aminomethyl]phenyl}isoquinoline] | 217 to 219 |

More lines, now with the values ahead:

| melting point [°C] | Structure (SMILES) |
| --- | --- |
| 238 to 240 | COc1ccc2c(-c3ccc(CNCCN4CCN(C)CC4)cc3)nc(-c3ccc(CNCCN4CCN(C)CC4)cc3)nc2c1 (as salt: (cooh)2) [Compound 3r, 7-Methoxy-2,4-bis{4-[(2–(4-methylpiperazin-1-yl)ethyl)aminomethyl]phenyl}quinazoline] |
| 222 to 224 | COc1ccc2c(-c3ccc(CNCCCCN4CCN(C)CC4)cc3)nc(-c3ccc(CNCCCCN4CCN(C)CC4)cc3)nc2c1 (as salt: (cooh)2) [Compound 3p, 7-Methoxy-2,4-bis{4-[(4–(4-methylpiperazin-1-yl)butyl)aminomethyl]phenyl}quinazoline] |
| 229 to 231 | COc1ccc2c(-c3ccc(CNCCCN4CCN(C)CC4)cc3)nc(-c3ccc(CNCCCN4CCN(C)CC4)cc3)nc2c1 (as salt: (cooh)2) [Compound 3q, 7-Methoxy-2,4-bis{4-[(3–(4-methylpiperazin-1-yl)propyl)aminomethyl]phenyl}quinazoline] |
| 227 to 229 | COc1ccc2nc(-c3ccc(CNCCCN4CCN(C)CC4)cc3)nc(-c3ccc(CNCCCN4CCN(C)CC4)cc3)c2c1 (as salt: (cooh)2) [Compound 3k, 6-Methoxy-2,4-bis{4-[(3–(4-methylpiperazin-1-yl)propyl)aminomethyl]phenyl}quinazoline] |
| 252 to 254 | CN1CCN(CCCNCc2cccc(-c3nc(-c4cccc(CNCCCN5CCN(C)CC5)c4)c4ccccc4n3)c2)CC1 (as salt: (cooh)2) [Compound 3t, 2,4-Bis{3-[(3–(4-methylpiperazin-1-yl)propyl)aminomethyl]phenyl}quinazoline] |
